We go through 22 molecules from patent US8501786B2, “Hydroxymethyl pyrrolidines as beta 3 adrenergic receptor agonists” (Merck Sharp & Dohme Corp., priority 2009, dated 2013).

Structures can show the parent of a compound that is named as a salt.

In one test the target is T1, human β3 adrenergic receptor (Homo sapiens, UniProt P13945).
T1 construct: stably transfected with the cloned β-adrenergic receptor (β1, β2 or β3); expressed in transfected cells; host or cells: Chinese hamster ovary (CHO) cells, stably transfected
T1 sequence (P13945 whole entry): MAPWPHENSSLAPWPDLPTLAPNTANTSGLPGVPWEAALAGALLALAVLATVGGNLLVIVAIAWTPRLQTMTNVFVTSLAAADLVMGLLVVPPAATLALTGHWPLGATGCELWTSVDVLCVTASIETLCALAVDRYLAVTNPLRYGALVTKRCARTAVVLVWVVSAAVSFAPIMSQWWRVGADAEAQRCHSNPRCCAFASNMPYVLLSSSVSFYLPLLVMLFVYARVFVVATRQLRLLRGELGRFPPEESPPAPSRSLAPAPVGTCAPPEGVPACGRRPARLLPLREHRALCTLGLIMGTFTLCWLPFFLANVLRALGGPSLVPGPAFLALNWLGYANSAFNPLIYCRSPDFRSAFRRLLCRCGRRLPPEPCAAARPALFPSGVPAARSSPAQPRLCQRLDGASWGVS
The experiment in a line: Functional assay: cAMP production (LANCE TR-FRET) in CHO cells stably transfected with cloned β3 adrenergic receptor. Format: cell-based. The conditions noted are these: Table 2; cAMP production, CHO cells expressing human β3 AR; read-out: Human β3 functional. The protocol:
Functional Assay: cAMP production in response to ligand is measured according to Barton, et al. (1991, Agonist-induced desensitization of D2 dopamine receptors in human Y-79 retinoblastoma cells. Mol. Pharmacal. v3229:650-658) modified as follows, cAMP production is measured using a homogenous time-resolved fluorescence resonance energy transfer immunoassay (LANCE™, Perkin Elmer) according to the manufacture's instructions. Chinese hamster ovary (CHO) cells, stably transfected with the cloned β-adrenergic receptor (β1, β2 or β3) are harvested after 3 days of subculturing. Harvesting of cells is done with Enzyme-free Dissociation Media (Specialty Media). Cells are then counted and resuspended in assay buffer (Hank's Balanced salt solution supplemented with 5 mM HEPES, […]) containing a phosphodiesterase inhibitor (IBMX, 0.6 mM). The reaction is initiated by mixing 6,000 cells in 6 μL with 6 μL Alexa Fluor labeled cAMP antibody (LANCE™ kit) which is then added to an assay well containing 12 μL of compound (diluted in assay buffer to 2× final concentration). The reaction proceeds for 30 min at room temperature and is terminated by the addition of 24 ul detection buffer (LANCE™ kit). The assay plate is then incubated for 1 h at room temperature and time-resolved fluorescence measured on a Perkin Elmer Envision reader or equivalent. The unknown cAMP level is determined by comparing fluorescence levels to a cAMP standard curve.
The non-selective, full agonist β-adrenergic ligand isoproterenol is used at all three receptors to determine maximal stimulation. The human β3 adrenergic receptor (AR) selective ligand (S)-N-[4-[2-[[2-hydroxy-3-(4-hydroxyphenoxy)propyl]amino]ethyl]-phenyl]-4-iodobenzenesulfonamide is used as a control in all assays. Isoproterenol is titrated at a final concentration in the assay of 10^-10 M to 10-5 and the selective ligand (S)-N-[4-[2-[[2-hydroxy-3-(4-hydroxyphenoxy)propyl]amino]ethyl]phenyl]-4-iodobenzenesulfonamide is titrated at the β3 receptor at concentration of 10^-10 M to 10^-5 M. Unknown ligands are titrated at all 3 β-adrenergic receptor subtypes at a final concentration in the assay of 10^-10 M to 10^-5 M to determine the EC50. The EC50 is defined as the concentration of compound that gives 50% activation of its own maximum. Data are analyzed using Microsoft Excel and Graphpad Prism or an internally developed data analysis software package.
Consider `O=C(Cc1csc(-c2ccccn2)n1)Nc1ccc(CC2CC[C@H]([C@H](O)c3cccnc3)N2)cc1` (stereo partly shown) [Example 81], for which the EC50 fell in the range of 11 to 100 nM.
On the same count and under the same terms, as for `COc1cccc(N2CCC[C@H]2C(=O)Nc2ccc(CC3CC[C@H]([C@H](O)c4cccnc4)N3)cc2)c1` (stereo partly shown) [Example 31], the figure is 1 to 10 nM.
On the same count and under the same terms, as for `Cc1nc(CC(=O)Nc2ccc(CC3CC[C@H]([C@H](O)c4cccnc4)N3)cc2)cs1` (stereo partly shown) [Example 15], the figure is 11 to 100 nM.
In the case of `O=C(CN1CCCCC1=O)Nc1ccc(CC2CC[C@H]([C@H](O)c3cccnc3)N2)cc1` (stereo partly shown) [Example 42], the EC50 fell in the range of 11 to 100 nM.
Same read-out and setting: with `O=C(Cn1cnc2ccccc2c1=O)Nc1ccc(CC2CC[C@H]([C@H](O)c3cccnc3)N2)cc1` (single isomer, unassigned) [Example 12] the figure was 1 to 10 nM.
For `Cc1nc(CC(=O)Nc2ccc(CC3CC[C@H]([C@H](O)c4cccnc4)N3)cc2)no1` (stereo partly shown) [Example 80], the EC50 was in the range of 11 to 100 nM.
As to `O=C(CC1NC(=S)N(c2ccccc2)C1=O)Nc1ccc(CC2CC[C@H]([C@H](O)c3cccnc3)N2)cc1` (stereo partly shown) [Example 72], the EC50 was 11 to 100 nM.
Still for that read-out and setting: as for `O=C(Cn1ccncc1=O)Nc1ccc(CC2CC[C@H]([C@H](O)c3cccnc3)N2)cc1` (stereo partly shown) [Example 63], the figure is 11 to 100 nM.
As for `O=C(Cn1cccnc1=O)Nc1ccc(CC2CC[C@H]([C@H](O)c3cccnc3)N2)cc1` (stereo partly shown) [Example 60], the EC50 was 1 to 10 nM.

Still in this test, the particulars now being: Table 3; cAMP production, CHO cells expressing human β3 AR; read-out: Human β3 functional.
On to `Cc1nnc2c(C(C)C(=O)Nc3ccc(CC4CC[C@H]([C@H](O)c5cccnc5)N4)cc3)cccn12` (single isomer, unassigned) [Example 216], for which the EC50 lay in the range of 11 to 100 nM.
On the same count and under the same terms, with `Cc1nc2c(s1)CCCC2C(=O)Nc1ccc(CC2CC[C@H]([C@H](O)c3cccnc3)N2)cc1` (single isomer, unassigned) [Example 134] the figure was 11 to 100 nM.
As for `CC(C(=O)Nc1ccc(CC2CC[C@H]([C@H](O)c3cccnc3)N2)cc1)c1nccs1` (single isomer, unassigned) [Example 175], the EC50 was in the range of 1 to 10 nM.
Consider `O=C(Nc1ccc(CC2CC[C@H]([C@H](O)c3cccnc3)N2)cc1)C1CCc2nccc(=O)n21` (single isomer, unassigned) [Example 161], for which the EC50 fell in the range of 1 to 10 nM.
Still for that read-out and setting: with `CC(C(=O)Nc1ccc(CC2CC[C@H]([C@H](O)c3cccnc3)N2)cc1)c1csc(N)n1` (single isomer, unassigned) [Example 105] the figure was 1 to 10 nM; with `O=C(Nc1ccc(CC2CC[C@H]([C@H](O)c3cccnc3)N2)cc1)C1CCc2sc(Cl)nc21` (single isomer, unassigned) [Example 186], below 1 nM.
Same read-out and setting: with `O=C(Nc1ccc(CC2CC[C@H]([C@H](O)c3cccnc3)N2)cc1)C1CCc2nc3ccccc3c(=O)n21` (single isomer, unassigned) [Example 193] the figure was 1 to 10 nM; with `COCCC(C(=O)Nc1ccc(CC2CC[C@H]([C@H](O)c3cccnc3)N2)cc1)n1cccn1` (single isomer, unassigned) [Example 220], 1 to 10 nM.
Still for that read-out and setting: as for `O=C(Nc1ccc(CC2CC[C@H]([C@H](O)c3cccnc3)N2)cc1)C1CCc2nccc(=O)n21` (single isomer, unassigned) [Example 160], the figure is 1 to 10 nM; as for `O=C(O)c1nc2c(s1)CCC2C(=O)Nc1ccc(CC2CC[C@H]([C@H](O)c3cccnc3)N2)cc1` (single isomer, unassigned) [Example 137], 1 to 10 nM; as for `CC(C(=O)Nc1ccc(CC2CC[C@H]([C@H](O)c3cccnc3)N2)cc1)c1cnccn1` (single isomer, unassigned) [Example 145], 1 to 10 nM.

The test is the same for the next values; noted with them: Table 4; cAMP production, CHO cells expressing human β3 AR; read-out: Human β3 functional.
As for `O=c1ccc2cc(S(=O)(=O)Nc3ccc(CC4CC[C@H]([C@H](O)c5cccnc5)N4)cc3)ccc2o1` (stereo partly shown) [Example 234], the EC50 lay in the range of 101 to 1000 nM.

Still in this test, the particulars now being: cAMP production, CHO cells expressing human β3 AR; read-out: human Beta-3 agonist functional activity.
Take `O=C(Nc1ccc(C[C@@H]2CC[C@H]([C@H](O)c3cncc(F)c3)N2)cc1)[C@@H]1CCc2scnc21` [Example 262, (4R)—N-[4-({(2S,5R)-5-[(R)-(5-fluoropyridin-3-yl)(hydroxy)methyl]pyrrolidin-2-yl}methyl)phenyl]-5,6-dihydro-4H-cyclopenta[d][1,3]thiazole-4-carboxamide, trifluoroacetic acid salt]: the EC50 was below 10 nM.
